Tested on: U2OS cells
Assay: Cell cycle analysis based on EdU incorporation
Details: for S-phase indices: CU1 200 μM or CU2 500 μM
Protocol: Figure 3 Cell-based assays with CU1 and CU2: (a) Western blot showing that the formation of mUb-FANCD2(*), in response to HU treatment (2.5 mM, 8 h), is impaired in U2OS cells in the presence of CU1 (200 μM) or CU2 (500 μM). Ratio = mUb-FANCD2/FANCD2 (normalized to DMSO control). mUb-FANCD2 was resolved on a separate gel. PARP1 was used as a loading control for each gel, as well as to assess apoptosis. (b) Quantification of the reduction in mUb-FANCD2, in response to HU treatment (2.5 mM, 8 h) in the presence of CU1 (200 μM) or CU2 (500 μM). Mean calculated from three independent experiments. (c) Western blot showing that formation of mUb-FANCD2 (denoted by an asterisk symbol, *) in response to cisplatin treatment (10 μM) for 6, 12, and 24 h is impaired in U2OS cells in the presence of CU2 (500 μM). Ratio = mUb-FANCD2/FANCD2 (normalized to DMSO control). (d) Cell cycle analyses based upon EdU incorporation in cells treated with HU (2.5 mM, 8 h) in the presence or absence of CU1 (200 μM) or CU2 (500 μM). HU treatment was used for gating purposes. […] TEXT PRINTED IN THE PICTURE: (d) DMSO: S-phase 42.7; G1 29.2; G2-M 27.8 | (d) HU: S-phase 0.24; G1 72.4; G2-M 22.9 | (d) CU1: S-phase 43.4; G1 26.8; G2-M 29.1 | (d) CU2: S-phase 39.7; G1 31.9; G2-M 28.2 DOUBTS OF THE COPYIST ABOUT THIS PICTURE: Panel d print is small, so these digits are best readings: DMSO G2-M 27.8 (8 or 6); CU1 G1 26.8 (6 or 8); CU2 S-phase 39.7 (9 or 8); CU2 G2-M 28.2 (8 or 6) / Panels a and c: the lane ratios printed under the western blots (a: 1.0, 0.64, 0.40; c: 1.0/0.65, 1.0/0.63, 1.0/0.53) were left out because they belong to blots and the picture prints no measure for them […]
As DNA damage induced by HU is cell-cycle-dependent, it was necessary to establish whether CU1 and CU2 might simply prevent cells from entering the S-phase, which would also manifest itself as a reduction in mUb-FANCD2. This was determined by analysis of several biomarkers linked to DNA damage in cycling cells. […]

SMILES	EdU incorporation intensity (CU1 200 μM)	S-phase indices
NCCN1C(=O)CC[C@H]2CN(Cc3cccc(-c4ccco4)c3)CC[C@H]21 [CU1]	slightly lower	no reduction in S-phase indices
CCN1CCN(c2cc(C)nc3nc(CN4CCCCC4C)nn23)CC1 (stereo not drawn) [CU2]		no reduction in S-phase indices
